Measured values published in PubChem BioAssay (NCI).
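Here, GI50 denotes the concentration required for 50% inhibition of growth. TGI: concentration producing complete growth inhibition.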

Legend:
Assay in all cases: NCI-60 cell line screen, 384-well format
UO-31 renal = tested on: UO-31 renal
CCRF-CEM leukemia = tested on: CCRF-CEM leukemia
A498 renal = tested on: A498 renal
NCI-H460 NSCLC = tested on: NCI-H460 NSCLC
SF-268 CNS = tested on: SF-268 CNS
OVCAR-5 ovarian = tested on: OVCAR-5 ovarian
MOLT-4 leukemia = tested on: MOLT-4 leukemia
U251 glioblastoma = tested on: U251 glioblastoma
HS 578T breast = tested on: HS 578T breast
SK-MEL-28 melanoma = tested on: SK-MEL-28 melanoma
MDA-MB-435 melanoma = tested on: MDA-MB-435 melanoma
RPMI-8226 leukemia = tested on: RPMI-8226 leukemia
MALME-3M melanoma = tested on: MALME-3M melanoma
TK-10 renal = tested on: TK-10 renal
K-562 leukemia = tested on: K-562 leukemia
SK-MEL-5 melanoma = tested on: SK-MEL-5 melanoma
NCI-H23 lung = tested on: NCI-H23 lung
SR leukemia = tested on: SR leukemia
COLO 205 colon = tested on: COLO 205 colon
OVCAR-8 ovarian = tested on: OVCAR-8 ovarian
HCC-2998 colon = tested on: HCC-2998 colon
NCI-H226 lung = tested on: NCI-H226 lung
EKVX NSCLC = tested on: EKVX NSCLC
SK-OV-3 ovarian = tested on: SK-OV-3 ovarian
ACHN renal = tested on: ACHN renal
SF-295 CNS = tested on: SF-295 CNS
T-47D breast = tested on: T-47D breast
DU-145 prostate = tested on: DU-145 prostate
HT29 colon = tested on: HT29 colon
BT-549 breast = tested on: BT-549 breast
NCI-H322M lung = tested on: NCI-H322M lung
OVCAR-3 ovarian = tested on: OVCAR-3 ovarian
LOX IMVI melanoma = tested on: LOX IMVI melanoma
PC-3 prostate = tested on: PC-3 prostate
MDA-MB-231 breast = tested on: MDA-MB-231 breast
UACC-257 melanoma = tested on: UACC-257 melanoma
HCT-15 colon = tested on: HCT-15 colon
SNB-75 CNS = tested on: SNB-75 CNS
NCI/ADR-RES ovarian = tested on: NCI/ADR-RES ovarian
MDA-MB-468 breast = tested on: MDA-MB-468 breast
SN12C renal = tested on: SN12C renal
CAKI-1 renal = tested on: CAKI-1 renal
SF-539 CNS = tested on: SF-539 CNS
OVCAR-4 ovarian = tested on: OVCAR-4 ovarian
786-0 renal = tested on: 786-0 renal
HOP-92 NSCLC = tested on: HOP-92 NSCLC
KM12 colon = tested on: KM12 colon
NCI-H522 lung = tested on: NCI-H522 lung
RXF 393 renal = tested on: RXF 393 renal
IGROV1 ovarian = tested on: IGROV1 ovarian
SW-620 colon = tested on: SW-620 colon
A549 NSCLC = tested on: A549 NSCLC
UACC-62 melanoma = tested on: UACC-62 melanoma
HL-60(TB) leukemia = tested on: HL-60(TB) leukemia
M14 melanoma = tested on: M14 melanoma
HOP-62 NSCLC = tested on: HOP-62 NSCLC
SNB-19 CNS = tested on: SNB-19 CNS

In the case of `COc1ccc(-c2ccc3c(N4CCOC[C@@H]4C)nc(N4CCOC[C@@H]4C)nc3n2)cc1CO`, the GI50 (UO-31 renal) is reported as 81.8 nM, the TGI (UO-31 renal) is reported as 19000 nM and the GI50 (CCRF-CEM leukemia) is reported as 14.9 nM. The TGI (CCRF-CEM leukemia) was 1820 nM, the GI50 (A498 renal) was < 10 nM and the TGI (A498 renal) was 51.9 nM. The GI50 (NCI-H460 NSCLC) was < 10 nM, the TGI (NCI-H460 NSCLC) was 11900 nM and the GI50 (SF-268 CNS) was 62.9 nM. The TGI (SF-268 CNS) was 12900 nM, the GI50 (OVCAR-5 ovarian) was 30.2 nM and the TGI (OVCAR-5 ovarian) was 1900 nM. For the same compound, the GI50 (MOLT-4 leukemia) was 17.9 nM, the TGI (MOLT-4 leukemia) was 322 nM and the GI50 (U251 glioblastoma) was 87.2 nM. The TGI (U251 glioblastoma) was 17400 nM, the GI50 (HS 578T breast) was 12.8 nM and the TGI (HS 578T breast) was 56.3 nM. The GI50 (SK-MEL-28 melanoma) was 19.9 nM, the TGI (SK-MEL-28 melanoma) was 436 nM and the GI50 (MDA-MB-435 melanoma) was 42.4 nM. The TGI (MDA-MB-435 melanoma) was 562 nM, the GI50 (RPMI-8226 leukemia) was < 10 nM and the TGI (RPMI-8226 leukemia) was 10 nM. For the same compound, the GI50 (MALME-3M melanoma) was < 10 nM, the TGI (MALME-3M melanoma) was 34.7 nM and the GI50 (TK-10 renal) was 93.8 nM. It also gave a TGI (TK-10 renal) of 749 nM, a GI50 (K-562 leukemia) of 56.3 nM and a TGI (K-562 leukemia) of 13200 nM. It also gave a GI50 (SK-MEL-5 melanoma) of 10.5 nM, a TGI (SK-MEL-5 melanoma) of 89.1 nM and a GI50 (NCI-H23 lung) of 60 nM. The TGI (NCI-H23 lung) was 14300 nM, the GI50 (SR leukemia) was 11.3 nM and the TGI (SR leukemia) was 43 nM. It also gave a GI50 (COLO 205 colon) of 24.4 nM, a TGI (COLO 205 colon) of 1350 nM and a GI50 (OVCAR-8 ovarian) of 46.2 nM. For the same compound, the TGI (OVCAR-8 ovarian) was 11600 nM, the GI50 (HCC-2998 colon) was 77 nM and the TGI (HCC-2998 colon) was 14900 nM. For the same compound, the GI50 (NCI-H226 lung) was 17.9 nM, the TGI (NCI-H226 lung) was 284 nM and the GI50 (EKVX NSCLC) was 23.3 nM. The TGI (EKVX NSCLC) was 583 nM, the GI50 (SK-OV-3 ovarian) was 17.6 nM and the TGI (SK-OV-3 ovarian) was 365 nM. The GI50 (ACHN renal) was 25.4 nM, the TGI (ACHN renal) was 11500 nM and the GI50 (SF-295 CNS) was 12.2 nM. For the same compound, the TGI (SF-295 CNS) was 87.7 nM, the GI50 (T-47D breast) was < 10 nM and the TGI (T-47D breast) was 23.6 nM. The GI50 (DU-145 prostate) was 40.6 nM, the TGI (DU-145 prostate) was 13300 nM and the GI50 (HT29 colon) was 102 nM. It also gave a TGI (HT29 colon) of 14700 nM, a GI50 (BT-549 breast) of 18.2 nM and a TGI (BT-549 breast) of 192 nM. It also gave a GI50 (NCI-H322M lung) of 27.6 nM, a TGI (NCI-H322M lung) of 11100 nM and a GI50 (OVCAR-3 ovarian) of 29.9 nM. For the same compound, the TGI (OVCAR-3 ovarian) was 11100 nM, the GI50 (LOX IMVI melanoma) was 31.6 nM and the TGI (LOX IMVI melanoma) was 294 nM. The GI50 (PC-3 prostate) was 16.1 nM, the TGI (PC-3 prostate) was 10200 nM and the GI50 (MDA-MB-231 breast) was 21.9 nM. The TGI (MDA-MB-231 breast) was 11100 nM, the GI50 (UACC-257 melanoma) was 42.9 nM and the TGI (UACC-257 melanoma) was 396 nM. For the same compound, the GI50 (HCT-15 colon) was 23.9 nM, the TGI (HCT-15 colon) was 11300 nM and the GI50 (SNB-75 CNS) was 14.3 nM. For the same compound, the TGI (SNB-75 CNS) was 207 nM, the GI50 (NCI/ADR-RES ovarian) was 102 nM and the TGI (NCI/ADR-RES ovarian) was 26700 nM. For the same compound, the GI50 (MDA-MB-468 breast) was 15.2 nM, the TGI (MDA-MB-468 breast) was 56.7 nM and the GI50 (SN12C renal) was 19 nM. For the same compound, the TGI (SN12C renal) was 11100 nM, the GI50 (CAKI-1 renal) was 31.6 nM and the TGI (CAKI-1 renal) was 842 nM. The GI50 (SF-539 CNS) was 32.2 nM, the TGI (SF-539 CNS) was 11000 nM and the GI50 (OVCAR-4 ovarian) was 12.9 nM. It also gave a TGI (OVCAR-4 ovarian) of 95.3 nM, a GI50 ([…]-0 renal) of 42.2 nM and a TGI (786-0 renal) of 12100 nM. It also gave a GI50 (HOP-92 NSCLC) of 19.1 nM, a TGI (HOP-92 NSCLC) of 340 nM and a GI50 (KM12 colon) of 29.4 nM. It also gave a TGI (KM12 colon) of 11400 nM, a GI50 (NCI-H522 lung) of 22.9 nM and a TGI (NCI-H522 lung) of 10000 nM. It also gave a GI50 (RXF 393 renal) of 27.3 nM, a TGI (RXF 393 renal) of 12000 nM and a GI50 (IGROV1 ovarian) of 12.2 nM. The TGI (IGROV1 ovarian) was 56.9 nM, the GI50 (SW-620 colon) was 120 nM and the TGI (SW-620 colon) was 13300 nM. It also gave a GI50 (A549 NSCLC) of 20.4 nM, a TGI (A549 NSCLC) of 6350 nM and a GI50 (UACC-62 melanoma) of 18.9 nM. It also gave a TGI (UACC-62 melanoma) of 208 nM, a GI50 (HL-60(TB) leukemia) of 322 nM and a TGI (HL-60(TB) leukemia) of 12800 nM. The GI50 (M14 melanoma) was 19 nM, the TGI (M14 melanoma) was 10500 nM and the GI50 (HOP-62 NSCLC) was 29.2 nM. The TGI (HOP-62 NSCLC) was 1880 nM, the GI50 (SNB-19 CNS) was 249 nM and the TGI (SNB-19 CNS) was 18500 nM.
